From article PMC8820783, “In vitro and in silico studies on clinically important enzymes inhibitory activities of flavonoids isolated from Euphorbia pulcherrima” (Annals of Medicine, 2022) come the findings set out here.

The target of one data set is T1, mushroom tyrosinase (Agaricus bisporus, UniProt C7FF04).
T1 construct: purchased Sigma-Aldrich T3824; host or cells: mushroom (natural source)
Description: Tyrosinase inhibition (L-DOPA, 96-well). It is filed as biochemical. The note with it: L-DOPA substrate, read-out: IC50 ± S.E. (tyrosinase).

Data set [1] concerns the target phosphodiesterase I from Crotalus adamanteus venom (Crotalus adamanteus, UniProt J3SEZ3). Description: biochemical.
The target of data set [2] is bovine serum albumin (BSA) glycation by MGO (Bos taurus, UniProt P02769). Description: Anti-glycation inhibition (BSA-MGO fluorescence). The following applies: 37 °C, 9 days; for IC50: read-out: IC50 ± S.E. (antiglycation). It is filed as biochemical. The procedure:
After incubation, glycation of protein was measured using fluorescence (emission, 440 nm; excitation, 330 nm), against a blank, and using a microtiter plate spectrophotometer (Spectra Max, Molecular Devices, Sunnyvale, CA).

Data set [3] has as its target Jack bean (Canavalia ensiformis) urease (Canavalia ensiformis, UniProt P07374). Description: biochemical.

Like-named read-outs stand apart in the source and are kept apart here.

Sequence of bovine serum albumin (BSA) glycation by MGO (P02769 25-607): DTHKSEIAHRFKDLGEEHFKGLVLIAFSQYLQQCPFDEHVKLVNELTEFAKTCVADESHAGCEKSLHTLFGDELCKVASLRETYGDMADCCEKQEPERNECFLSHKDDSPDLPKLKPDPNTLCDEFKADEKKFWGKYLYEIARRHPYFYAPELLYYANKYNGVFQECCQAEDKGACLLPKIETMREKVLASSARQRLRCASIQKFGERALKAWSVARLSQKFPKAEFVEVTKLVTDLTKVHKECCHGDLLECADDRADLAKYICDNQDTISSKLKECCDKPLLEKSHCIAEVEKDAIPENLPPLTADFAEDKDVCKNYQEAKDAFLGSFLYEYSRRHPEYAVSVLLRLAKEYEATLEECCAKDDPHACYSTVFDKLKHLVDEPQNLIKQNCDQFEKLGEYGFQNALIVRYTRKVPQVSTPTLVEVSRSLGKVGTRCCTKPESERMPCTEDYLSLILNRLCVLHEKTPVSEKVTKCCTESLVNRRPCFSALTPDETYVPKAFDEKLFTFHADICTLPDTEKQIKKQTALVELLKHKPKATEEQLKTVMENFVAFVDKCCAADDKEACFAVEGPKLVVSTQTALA
Sequence of phosphodiesterase I from Crotalus adamanteus venom (J3SEZ3 24-851 limits assumed): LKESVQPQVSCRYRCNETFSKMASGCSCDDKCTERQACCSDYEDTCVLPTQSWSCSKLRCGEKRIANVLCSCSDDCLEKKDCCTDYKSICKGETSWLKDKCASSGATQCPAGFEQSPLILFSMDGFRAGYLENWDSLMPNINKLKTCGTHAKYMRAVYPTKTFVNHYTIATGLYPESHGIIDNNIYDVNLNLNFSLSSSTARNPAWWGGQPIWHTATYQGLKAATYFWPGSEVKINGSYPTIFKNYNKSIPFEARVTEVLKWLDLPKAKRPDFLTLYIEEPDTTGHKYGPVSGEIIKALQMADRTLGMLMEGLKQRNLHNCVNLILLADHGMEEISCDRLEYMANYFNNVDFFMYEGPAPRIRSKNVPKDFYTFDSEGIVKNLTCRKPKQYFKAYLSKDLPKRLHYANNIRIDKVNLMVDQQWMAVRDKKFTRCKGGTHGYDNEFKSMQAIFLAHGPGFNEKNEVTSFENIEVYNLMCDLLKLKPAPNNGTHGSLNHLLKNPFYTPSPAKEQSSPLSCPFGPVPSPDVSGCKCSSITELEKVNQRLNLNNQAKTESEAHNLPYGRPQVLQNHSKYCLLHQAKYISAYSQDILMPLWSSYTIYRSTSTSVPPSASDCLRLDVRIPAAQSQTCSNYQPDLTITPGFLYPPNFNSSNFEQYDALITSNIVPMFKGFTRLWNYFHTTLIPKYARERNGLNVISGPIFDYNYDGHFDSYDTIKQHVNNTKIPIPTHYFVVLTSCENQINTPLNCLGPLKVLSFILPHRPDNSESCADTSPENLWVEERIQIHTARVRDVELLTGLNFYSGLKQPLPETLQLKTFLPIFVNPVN
Sequence of Jack bean (Canavalia ensiformis) urease (P07374 whole entry, looked up): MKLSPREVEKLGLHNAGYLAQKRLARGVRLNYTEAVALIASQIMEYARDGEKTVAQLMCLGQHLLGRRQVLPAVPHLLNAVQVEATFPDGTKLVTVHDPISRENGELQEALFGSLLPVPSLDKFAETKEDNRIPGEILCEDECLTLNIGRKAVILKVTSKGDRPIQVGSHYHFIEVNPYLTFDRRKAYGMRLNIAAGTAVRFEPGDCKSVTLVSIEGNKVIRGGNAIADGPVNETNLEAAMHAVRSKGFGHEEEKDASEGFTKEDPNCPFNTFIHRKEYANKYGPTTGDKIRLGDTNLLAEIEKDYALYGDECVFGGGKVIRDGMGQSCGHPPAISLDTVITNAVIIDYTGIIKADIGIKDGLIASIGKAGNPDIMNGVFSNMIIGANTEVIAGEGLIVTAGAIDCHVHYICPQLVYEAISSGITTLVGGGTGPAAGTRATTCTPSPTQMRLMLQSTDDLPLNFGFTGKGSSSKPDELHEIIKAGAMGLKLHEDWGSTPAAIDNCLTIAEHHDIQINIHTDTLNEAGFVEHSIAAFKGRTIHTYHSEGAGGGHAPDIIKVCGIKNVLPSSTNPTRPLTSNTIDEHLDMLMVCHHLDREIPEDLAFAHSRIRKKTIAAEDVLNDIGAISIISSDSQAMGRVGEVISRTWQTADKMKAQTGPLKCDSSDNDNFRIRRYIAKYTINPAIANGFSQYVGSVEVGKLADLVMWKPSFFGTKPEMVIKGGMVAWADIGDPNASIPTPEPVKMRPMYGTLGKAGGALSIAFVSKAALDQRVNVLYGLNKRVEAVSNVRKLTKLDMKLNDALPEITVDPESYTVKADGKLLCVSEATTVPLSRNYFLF
T1 sequence (C7FF04 1-392 limits assumed): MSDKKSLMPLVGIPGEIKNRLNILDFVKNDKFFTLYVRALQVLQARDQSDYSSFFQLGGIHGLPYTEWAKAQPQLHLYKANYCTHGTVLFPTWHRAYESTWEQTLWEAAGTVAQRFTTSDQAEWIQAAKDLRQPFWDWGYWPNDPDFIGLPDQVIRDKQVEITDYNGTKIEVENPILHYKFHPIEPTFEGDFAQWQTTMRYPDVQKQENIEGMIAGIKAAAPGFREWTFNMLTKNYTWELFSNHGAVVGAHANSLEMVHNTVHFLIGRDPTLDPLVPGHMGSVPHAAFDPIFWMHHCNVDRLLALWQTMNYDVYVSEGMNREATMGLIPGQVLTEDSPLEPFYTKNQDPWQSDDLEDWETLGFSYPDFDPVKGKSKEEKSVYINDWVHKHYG
Description for mushroom tyrosinase: According to this method, the tested compounds (10 µL) was carefully transfer into a 96-well microplate, mixed with 10 µL mushroom tyrosinase and buffer solution 60 µL. After incubation, 20 µL of 3,4-dihydroxy-l-phenylalanine (L-DOPA) in phosphate buffer was blended, and some amount of dopachrome was added into the reaction mixture. The effect was checked by spectrophotometry at 450 nm with (OD480) (optical density, OD). EZ-Fit software was used to measure the IC50 values in µM. The % inhibition was calculated by using following formula. Percent inhibition=100−OD test well/OD control×100

As usually defined, the IC50 is the concentration that inhibits the measured activity by half. `COc1cc(-c2oc3cc(O)c(OC)c(O)c3c(=O)c2O)ccc1O` [compound 1, 3,5,7-trihydroxy-2-(4-hydroxy-3-methoxyphenyl)-6-methoxy-4H-chromen-4-one]: the values for the IC50 (on mushroom tyrosinase; in data set [1]; in data set [3]) were 48.7 ± 2.19 µM, 148.7 ± 1.09 µM and 15.3 ± 2.13 µM, respectively. Further, in data set [2], the “IC50 ± S.E. (antiglycation)” value was “inactive”.

For `O=C(O)CN(CCN(CC(=O)O)CC(=O)O)CC(=O)O` [EDTA, reference compound], the IC50 in data set [1] (table head prints no unit, read-out: IC50 ± S.E.M. (phosphodiesterase)) was determined as 265 ± 2.24 µM.

`C[C@@H]1O[C@@H](OC[C@H]2O[C@@H](Oc3c(-c4ccc(O)c(O)c4)oc4cc(O)cc(O)c4c3=O)[C@H](O)[C@@H](O)[C@@H]2O)[C@H](O)[C@H](O)[C@H]1O` [rutin, Rutin, reference compound]: in data set [2], the IC50 stood at 295 ± 3.14 µM.

For the compound `COc1c(O)cc2oc(-c3ccc(O)c(O)c3)c(O)c(=O)c2c1O` [compound 2, 2-(3,4-dihydroxyphenyl)-3,5,7-trihydroxy-6-methoxy-4H-chromen-4-one], the IC50 at mushroom tyrosinase amounted to 74.8 ± 1.79 µM; in data set [1], 95.2 ± 4.14 µM; in data set [2], 244.8 ± 1.79 µM; in data set [3] it was 19 ± 2.43 µM.
